Patent publication US7642350B2, “Purine derivatives” (Pfizer Limited, priority 2005, dated 2010)
pEC50: −log10 of the molar value. Like-named read-outs stand apart in the source and are kept apart here.

Tests used:
[1] = target: T1, TLR7 receptor (Homo sapiens, UniProt Q9NYK1); experiment: cell-based; details: for inhibition at 10 µM: read-out: inhibition at 10 μM
T1 sequence (Q9NYK1 27-1049): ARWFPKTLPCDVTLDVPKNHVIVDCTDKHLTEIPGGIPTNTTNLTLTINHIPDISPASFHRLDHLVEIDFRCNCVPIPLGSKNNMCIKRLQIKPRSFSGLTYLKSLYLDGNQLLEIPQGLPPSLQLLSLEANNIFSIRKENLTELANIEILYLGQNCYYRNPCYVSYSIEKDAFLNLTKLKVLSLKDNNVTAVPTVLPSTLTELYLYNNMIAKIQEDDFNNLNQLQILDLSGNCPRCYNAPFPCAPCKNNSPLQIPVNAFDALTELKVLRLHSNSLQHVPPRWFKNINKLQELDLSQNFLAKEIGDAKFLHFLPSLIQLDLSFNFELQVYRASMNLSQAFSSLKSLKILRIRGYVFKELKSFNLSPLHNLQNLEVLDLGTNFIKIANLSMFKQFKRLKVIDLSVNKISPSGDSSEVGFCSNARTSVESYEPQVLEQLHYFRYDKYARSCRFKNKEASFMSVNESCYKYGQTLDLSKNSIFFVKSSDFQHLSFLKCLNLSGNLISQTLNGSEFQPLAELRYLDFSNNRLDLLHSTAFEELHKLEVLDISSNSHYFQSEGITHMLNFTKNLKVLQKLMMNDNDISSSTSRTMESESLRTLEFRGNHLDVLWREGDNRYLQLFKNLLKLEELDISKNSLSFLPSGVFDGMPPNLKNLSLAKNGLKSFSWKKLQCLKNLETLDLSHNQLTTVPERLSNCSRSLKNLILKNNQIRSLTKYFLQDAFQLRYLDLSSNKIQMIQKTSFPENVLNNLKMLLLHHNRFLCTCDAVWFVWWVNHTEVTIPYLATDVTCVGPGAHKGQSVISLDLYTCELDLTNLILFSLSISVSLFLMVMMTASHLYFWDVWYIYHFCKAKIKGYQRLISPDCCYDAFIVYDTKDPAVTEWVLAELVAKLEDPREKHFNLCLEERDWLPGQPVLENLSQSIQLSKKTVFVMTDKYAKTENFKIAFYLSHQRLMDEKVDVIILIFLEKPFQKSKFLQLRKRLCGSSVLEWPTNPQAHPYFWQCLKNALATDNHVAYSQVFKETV
Method: (§1) PBL contain as a subpopulation plasmacytoid dendritic cells which are the natural interferon producing cells during an infection and as such are an excellent model in which to profile interferon inducers. As an extremely sensitive antiviral bioassay, supernatant taken from PBL is assayed for antiviral activity in the HCV replicon system.
(§2) The HCV replicon (Huh-5-2[I389luc-ubi-neo-NS3-3′/ET]) is an in vitro model of HCV replication in which the luciferase reporter is incorporated into HCV sequences and stably maintained in the human hepatoma cell line Huh-7. The firefly luciferase reporter is expressed as a luciferase-ubiquitin-neomycin phosphotransferase fusion protein which is cleaved by host proteases to release luciferase. The replicon also contains an internal EMCV IRES, which drives translation of HCV NS3-5B polyprotein, which harbour cell culture adapted mutations to permit high cloning efficiency. […] Firefly luciferase activity is detected using a Bright-Glo™ Luciferase Assay System manufactured by Promega.
(§3) An initial 3 fold serial dilution series of compounds in 100% DMSO is prepared from stocks. The dilution series is then further diluted 100 fold with complete RPMI—FCS. The final concentration of DMSO in the assay is thus 0.1% and that of the test compound is 1/1000 in the 100% DMSO dilution series.
(§4) PBL are prepared seeded at 5×10^5/well/90 μl into the previously prepared compound containing assay plates (96 well clear bottomed TC grade) and incubated for 24 h.
(§5) LucUbiNeo HCV replicon cells are seeded at 10^4/well/90 μl. These are incubated for 24 h. After 24 h 10 μl of medium is transferred from the PBL assay plates to the HCV replicon plates and incubated for a further 48 h.

[2] = target: T1, TLR7 receptor; details: read-out: EC50 (antiviral EC50); concentration of test compound applied to PBL (24 h) giving 50% reduction of HCV replicon levels after transfer of PBL medium to Huh-5-2 luciferase replicon cells (48 h)
Method: as §1, §2, §3, §4, §5

SMILES | pEC50 [1] | inhibition at 10 µM [1] [%] | pEC50 [2]
Nc1nc(C(=O)NCC2CC2)nc2c1[nH]c(=O)n2Cc1ccccc1 [Example 1, 6-Amino-9-benzyl-8-oxo-8,9-dihydro-7H-purine-2-carboxylic acid cyclopropylmethyl-amide] | 7.52 | > 50 | –
COCCNC(=O)c1nc(N)c2[nH]c(=O)n(Cc3ccccc3)c2n1 [Example 2] | – | > 50 | 8.30
Nc1nc(C(=O)N2CCC2)nc2c1[nH]c(=O)n2Cc1ccccc1 [Example 4] | 7.14 | > 50 | –
CNC(=O)c1nc(N)c2[nH]c(=O)n(Cc3ccccc3)c2n1 [Example 5] | 7.38 | > 50 | –
CCNC(=O)c1nc(N)c2[nH]c(=O)n(Cc3ccccc3)c2n1 [Example 6] | 7.77 | > 50 | –
NC(=O)c1nc(N)c2[nH]c(=O)n(Cc3ccccc3)c2n1 [Example 11] | – | > 50 | –
Nc1nc(C(=O)NCc2ccccc2)nc2c1[nH]c(=O)n2Cc1ccccc1 [Example 14] | – | > 50 | –
COCCn1c(=O)[nH]c2c(N)nc(C(=O)NCc3ccccc3)nc21 [Example 33] | – | > 50 | –
COCCn1c(=O)[nH]c2c(N)nc(C(=O)N(C)Cc3ccccc3)nc21 [Example 36] | – | > 50 | –
Cc1ccc(S(=O)(=O)NC(=O)c2nc(N)c3[nH]c(=O)n(Cc4ccccc4)c3n2)cc1 [Example 221, 6-Amino-9-benzyl-N-(toluylsulfonyl)-8-oxo-8,9-dihydro-7H-purine-2-carboxamide] | – | > 50 | –
Nc1nc(C(=O)NS(=O)(=O)c2ccccc2)nc2c1[nH]c(=O)n2Cc1ccccc1 [Example 222] | – | > 50 | –
CCCCS(=O)(=O)NC(=O)c1nc(N)c2[nH]c(=O)n(Cc3ccccc3)c2n1 [Example 226] | – | > 50 | –
